Data taken from patent US8722626B2, “Method for controlling fibrosis and other pathological deposits in tissues comprising administering a GHRP-6 composition” (Centro de Ingenieria Genetica y Biotecnologia, priority 2006, dated 2014).
Marks after values point to notes of the source that are not given here.

Legend:
[1] = system: hepatic fibrosis in male Wistar rats (CCl4); experiment: Reverting hepatic fibrosis induced by carbon tetrachloride (CCl4) in rats (Example 2); format: in vivo, rat; parameters: SODt (oxidative stress marker) / Catalase (oxidative stress marker) / HPT (oxidative stress marker) / MDA (oxidative stress marker): unit not given here; details: for GOT serum level / GPT serum level / OH—P Content (hydroxiproline) in the liver / Grade 0 (null) bridging fibro-proliferative reaction in liver, animals per group / Grade 1 (moderate, up to 25% of the slide), animals per group / Grade 2 (limited, up to 50% of the slide), animals per group / Grade 3 (severe, up to the 75% of the slide), animals per group / Grade 4 (very severe, over 75% of the slide), animals per group: four weeks; for GOT serum level / GPT serum level / OH—P Content (hydroxiproline) in the liver: end of treatment; for Grade 0 (null) bridging fibro-proliferative reaction in liver, animals per group / Grade 1 (moderate, up to 25% of the slide), animals per group / Grade 2 (limited, up to 50% of the slide), animals per group / Grade 3 (severe, up to the 75% of the slide), animals per group / Grade 4 (very severe, over 75% of the slide), animals per group: n = 15; for Catalase (oxidative stress marker) / HPT (oxidative stress marker) / MDA (oxidative stress marker) / SODt (oxidative stress marker): liver samples, end of the third week of treatment
Procedure: This experiment was conducted to evaluate the effect of the pharmaceutical composition containing the GHRP-6 on reverting hepatic fibrosis in rats, wherein said hepatic fibrosis was induced by carbon tetrachloride (CCl4). This is a hepatotoxic agent that causes chronic hepatitis and fibrosis after long-term administration. Hepatic fibrosis was induced in male Wistar rats of 250 g of body weight by intraperitoneally administered CCl4 50%/50% (v/v) in olive oil, twice per week during four weeks. After that time, 25% of the rats were sacrificed and subjected to blood biochemistry and pathological anatomy studies. […] The animals remaining were randomly distributed into three experimental groups of 15 rats each: (1) Control placebo group, receiving physiological saline solution, (2) Group receiving the GHRP-6 at a 100 μg/kg dosage, and (3) Group receiving the GHRP-6 at a 400 μg/kg dosage. […] Treatments were started immediately after the fibrosis established and the suspension of CCl4 administration. […] Liver fragments were fixed in formalin neutral and processed by hematoxylin/eosin staining, or by Masson's trichromic staining, to evaluate the general damage and the severity of fibrotic indurations. Other fragments of liver tissues were stored at −70° C. until processing to determine the content of hydroxiproline by acid hydrolysis in 1N HCl, and also the intrahepatic levels of redox metabolism markers. Biochemical determinations were carried out by calculating the total protein content by the Bradford's method. The response to the treatment with the pharmaceutical composition was characterized by determining the serum levels of GOT and GPT transaminases, histological criteria in quantitative scale and some markers distinctive of the levels of lipid peroxidation.

[2] = system: renal fibrosis in rats (Doxorubicin); experiment: Reverting renal fibrosis induced by Doxorubicin in rats (Example 3); format: in vivo, rat; details: for GOT serum level (integrity of the hepatic parenchyma) / GPT serum level (integrity of the hepatic parenchyma) / OH—P Content (hydroxiproline) in kidneys / Grado 0 (null) fibrosis in kidneys, numbers of animals per group / Grado 1 (moderate) fibrosis in kidneys, numbers of animals per group / Grado 2 (intense) fibrosis in kidneys, numbers of animals per group / Grado 3 (very intense) fibrosis in kidneys, numbers of animals per group: 4 weeks; for GOT serum level (integrity of the hepatic parenchyma) / GPT serum level (integrity of the hepatic parenchyma) / OH—P Content (hydroxiproline) in kidneys: end of treatment; for OH—P Content (hydroxiproline) in kidneys: 20 fragments per group; for Grado 0 (null) fibrosis in kidneys, numbers of animals per group / Grado 1 (moderate) fibrosis in kidneys, numbers of animals per group / Grado 2 (intense) fibrosis in kidneys, numbers of animals per group / Grado 3 (very intense) fibrosis in kidneys, numbers of animals per group: N = 20; for Catalase (oxidative stress marker) / HPT (oxidative stress marker) / MDA (oxidative stress marker) / SODt (oxidative stress marker): renal tissue samples, end of the fourth week of treatment
Procedure: This experiment was conducted to evaluate the effect of the pharmaceutical composition containing GHRP-6 in reverting renal fibrosis in rats. In this case, the process was induced by sustained administration of the anti-neoplasic agent Doxorubicin (DX) at a 2.5 mg/kg dosage twice a week during 8 weeks. […] This point forward, DX administration was interrupted and the treatment with the pharmaceutical composition containing the GHRP-6 was started. The treatment was applied once daily at 100 and 400 μg/kg in a volume of 1 ml by the intraperitoneal route, during 4 weeks. The animals remaining were randomly distributed into three experimental groups of 20 rats each: (1) Control placebo group, receiving physiological saline solution, (2) Group receiving the GHRP-6 at a 100 μg/kg dosage, and (3) Group receiving the GHRP-6 at a 400 μg/kg dosage. When treatments concluded, the animals were sacrificed by anesthesia overdose and livers, kidneys, lungs and blood sera were collected. Tissue fragments were fixed in formalin neutral and processed by hematoxylin/eosin staining, or by Masson's trichromic staining, to evaluate the general damage and the severity of fibrotic indurations. Other fragments were stored at −70° C. until processing to determine the content of hydroxiproline by acid hydrolysis in 1N HCl, and also the levels of creatinine and oxidative stress markers. Biochemical determinations were carried out by calculating the total protein content by the Bradford's method.

[3] = system: human keloid fragments xeno-transplanted in athymic mice; experiment: Human keloid fragments xeno-transplanted into athymic mice (Example 7); format: in vivo, mouse
From the text: To study the effect of peptides GHRP-6, GHRP-2, Hexarelin and/or Ghrelin in eradicating the pathological deposits of physiological material in the skin, human keloid fragments were xeno-transplanted into the dorsal region in athymic mice. After 72 hrs of evolution, to corroborate grafting and viability of xeno-transplants, the animals (N=6) were randomly distributed into the following experimental groups: • A—Saline control group (vehicle of the active principles). • B—Group receiving GHRP-6. • C—Group receiving GHRP-2. • D—Group receiving Ghrelin. • E—Group receiving Hexarelin. • Treatments were applied once every 24 hrs during 7 days. The substances were infiltrated at the edges in the implants, for local bioavailability of the active principles, at dosages from 5 micrograms to 1 milligram. After the treatment period, the animals were sacrificed and the implants extracted to evaluate the pharmacological response to every substance. Samples were weighed and fragmented for histological studies and biochemical determinations of collagen. The fragments for histological studies were fixed in 10% formalin neutral, and those fragments for biochemical analyses were stored at −70° C. • The parameters studied were: • a—Wet weight of the graft collected. • b—Hydroxiproline content in the tissue. • c—Number of microscopic fields with tissue positive to Picrosirius red staining and trichromic Masson's staining.

[4] = Dosage II: 400 μg/kg once daily
[5] = Dosage I: 100 μg/kg i.p. once daily
[6] = Dosage II: 400 μg/kg i.p. once daily
[7] = Dosis I: 100 μg/kg i.p. once daily
[8] = Dosis II: 400 μg/kg i.p. once daily
[9] = infiltrated at the edges in the implants once every 24 hrs during 7 days, 5 micrograms to 1 milligram

GHRP-6
GOT serum level ([1]; Dosage I: 100 μg/kg once daily): 56.31 ± 12.19 IU/l | GPT serum level ([1]; Dosage I: 100 μg/kg once daily): 77.15 ± 22.66 IU/l | OH—P Content (hydroxiproline) in the liver ([1]; Dosage I: 100 μg/kg once daily): 40.21 ± 3.54 μg/g of total proteins | Grade 0 (null) bridging fibro-proliferative reaction in liver, animals per group ([1]; Dosage I: 100 μg/kg once daily): 0 | Grade 1 (moderate, up to 25% of the slide), animals per group ([1]; Dosage I: 100 μg/kg once daily): 9 | Grade 2 (limited, up to 50% of the slide), animals per group ([1]; Dosage I: 100 μg/kg once daily): 6* | Grade 3 (severe, up to the 75% of the slide), animals per group ([1]; Dosage I: 100 μg/kg once daily): 0 | Grade 4 (very severe, over 75% of the slide), animals per group ([1]; Dosage I: 100 μg/kg once daily): 0 | GOT serum level [1, 4]: 28.18 ± 4.71 IU/l | GPT serum level [1, 4]: 26.94 ± 12.42 IU/l | OH—P Content (hydroxiproline) in the liver [1, 4]: 10.22 ± 4.33 μg/g of total proteins | Grade 0 (null) bridging fibro-proliferative reaction in liver, animals per group [1, 4]: 8* | Grade 1 (moderate, up to 25% of the slide), animals per group [1, 4]: 7 | Grade 2 (limited, up to 50% of the slide), animals per group [1, 4]: 0 | Grade 3 (severe, up to the 75% of the slide), animals per group [1, 4]: 0 | Grade 4 (very severe, over 75% of the slide), animals per group [1, 4]: 0 | Catalase (oxidative stress marker) ([1]; Dosage I: 100 μg/kg): 60.43 ± 11.81 | HPT (oxidative stress marker) ([1]; Dosage I: 100 μg/kg): 55.11 ± 2.77 | MDA (oxidative stress marker) ([1]; Dosage I: 100 μg/kg): 0.16 ± 1.16 | SODt (oxidative stress marker) ([1]; Dosage I: 100 μg/kg): 17632.08 ± 321.55 | Catalase (oxidative stress marker) ([1]; Dosage II: 400 μg/kg): 22.67 ± 3.56 | HPT (oxidative stress marker) ([1]; Dosage II: 400 μg/kg): 26.44 ± 2.43 | MDA (oxidative stress marker) ([1]; Dosage II: 400 μg/kg): 0.09 ± 0.01 | SODt (oxidative stress marker) ([1]; Dosage II: 400 μg/kg): 20187.87 ± 245.13 | Deposition of collagenous and extracellular matrix materials in the liver parenchyma (overall result) ([1]; repeated CCl4 administration): eradicate and control deposition of collagenous and extracellular matrix materials | Hepatocytes death ([1]; repeated CCl4 administration): prevents individual, focal and pericentrolobular hepatocytes death | GOT serum level (integrity of the hepatic parenchyma) [2, 5]: 64.82 ± 23.71 IU/l | GPT serum level (integrity of the hepatic parenchyma) [2, 5]: 81.0 ± 10.25 IU/l | OH—P Content (hydroxiproline) in kidneys [2, 5]: 46.15 ± 2.73 μg/g of total proteins | GOT serum level (integrity of the hepatic parenchyma) [2, 6]: 26.22 ± 4.1 IU/l | GPT serum level (integrity of the hepatic parenchyma) [2, 6]: 28.25 ± 5.66 IU/l | OH—P Content (hydroxiproline) in kidneys [2, 6]: 8.66 ± 1.02 μg/g of total proteins | Grado 0 (null) fibrosis in kidneys, numbers of animals per group [2, 7]: 6 | Grado 1 (moderate) fibrosis in kidneys, numbers of animals per group [2, 7]: 9 | Grado 2 (intense) fibrosis in kidneys, numbers of animals per group [2, 7]: 5 | Grado 3 (very intense) fibrosis in kidneys, numbers of animals per group [2, 7]: 0 | Grado 0 (null) fibrosis in kidneys, numbers of animals per group [2, 8]: 5 | Grado 1 (moderate) fibrosis in kidneys, numbers of animals per group [2, 8]: 15* | Grado 2 (intense) fibrosis in kidneys, numbers of animals per group [2, 8]: 0 | Grado 3 (very intense) fibrosis in kidneys, numbers of animals per group [2, 8]: 0 | Percent of animals with renal fibrosis compromise per group at the end of the treatment ([2]; FIGURE, 100 and 400 μg/kg vs. placebo, highest difference at 400 μg/kg): dosage-dependent effect | Catalase (oxidative stress marker) ([2]; Dosage I: 100 μg/kg): 126.02 ± 12.23 | HPT (oxidative stress marker) ([2]; Dosage I: 100 μg/kg): 73.2 ± 6.92 | MDA (oxidative stress marker) ([2]; Dosage I: 100 μg/kg): 0.56 ± 2.23 | SODt (oxidative stress marker) ([2]; Dosage I: 100 μg/kg): 665.08 ± 28.42 | Catalase (oxidative stress marker) ([2]; Dosage II: 400 μg/kg): 45.38 ± 8.27 | HPT (oxidative stress marker) ([2]; Dosage II: 400 μg/kg): 16.14 ± 3.67 | MDA (oxidative stress marker) ([2]; Dosage II: 400 μg/kg): 0.087 ± 0.02 | SODt (oxidative stress marker) ([2]; Dosage II: 400 μg/kg): 1287.64 ± 112.63 | No. of fields positive to collagen-specific staining ([3]; Picrosirius red and trichromic Masson's staining, 4× and 10× averaged, infiltrated once every 24 hrs during 7 days): 11.45 | No. of microscopic fields with mast cells (20X magnif.) ([3]; aniline blue staining, infiltrated once every 24 hrs during 7 days): 9.54 ± 2.15 | Hydroxiproline content in the tissue [3, 9]: 88.27 ± 4.61 µg/g | Wet weight of the graft collected [3, 9]: 6.71 ± 1.18 a grams
